# According to PMC4096217 (Journal of Medicinal Chemistry, 2014):
# Test system: BR+ cancer cell lines (MX-1, MCF-7, ID8, L1210FR)
# Assay: MTT cytotoxicity, 72 h, summarised over the four BR+ cancer cell lines
# Type: cell-based
# Details: Table 1 entries 1 and 2
substance,measurement,value
SB-T-1214 [taxoid 1],Cytotoxicity relative to camptothecin (times stronger),148–846 times
